In brackets after ≈: the same amount, converted by molar mass.
Legend:
Type in all cases: cell-based
[1] = tested on: A-549 human lung carcinoma cells; experiment: Human tumor cell line assay, A-549 (lung); settings: 120 hours, read-out: Activity at prescribed doses
Description: (§1) HUMAN TUMOR CELL LINE ASSAY
(§2) Maintenance of Cell Line HCT-8 human colon tumor cells are grown in RPMl 1640 medium (GIBCO). A-549 human lung carcinoma cells and MD-AMB-231 human breast cancer cells are cultured in Dulbecco medium (Biologos, Inc.). All media are supplemented with 10% fetal bovine serum and contain 50 ug/ml gentamycin. All human tumor cell lines are incubated at 5% CO2 at 37° and subcultured once a week. The seeding levels are 350,000 MCF-7 cells, 60,000 HCT-8 cells and 300,000 A-549 cells per T-25 Flask. Vinblastine is used as a positive control.
(§3) 2. Incubate in a CO2 -incubator for 48 hours.
(§4) 3. Add composition to each well and incubate for an additional 120 hours.
(§5) 4. Discard medium and stain with methylene blue (HCT-8) or crystal violet (A-549 and MD-AMB-231).
(§6) 5. Compare cell density of drug-treated well with that of the control (no drug added) as follows: ND (not detectable), >90%; 1+, 75-90%; 2+, 50-74%; 3+, 25-49%, 4+, >25% of control growth.

[2] = tested on: MD-AMB-231 human breast cancer cells; experiment: Human tumor cell line assay, MD-AMB-231 (mammary); settings: 120 hours, read-out: Activity at prescribed doses
Description: as §1, §2, §3, §4, §5, §6

[3] = tested on: HCT-8 human colon tumor cells; experiment: Human tumor cell line assay, HCT-8 (colon); settings: 120 hours, read-out: Activity at prescribed doses
Description: as §1, §2, §3, §4, §5, §6

[4] = tested on: P388 mouse leukemia cells; experiment: P388 mouse leukemia cell assay; settings: 48 hours
Description: P388 MOUSE LEUKEMIA CELL ASSAY
P388 mouse leukemia cells are grown in Dulbecco MEM medium with 10% horse serum, 4 mM glutamine, and 20 ug/ml gentamycin (Biologos, Inc.). Cells are incubated in 10% CO2 and subcultured 2 times per week.
1. Add composition to each well of a 24-well plate or tube and allow solvent to evaporate to dryness.
2. Add 2 ml (1.2×10^5) cells to each well or tube and mix.
3. Incubate in 10% CO2 at 37° for 48 hours.
4. Read plates with an inverted microscope, scoring activity from 1+ to 4+ as follows: ND (not detectable), >90%; 1+, 75-90%; 2+, 50-74%; 3+, 25-49%; 4+, <25% of control growth. Alternatively, the activity may be designated as IC50 concentration which is the concentration of composition required to inhibit 50% of cell growth on the plate.
Cell counts are performed on each tube and results are reported as percent of control.

With `CN1CC(c2c[nH]c3c(Br)c(Br)cc(O)c23)NCC1c1c[nH]c2cc(Br)ccc12` (stereo not shown) [Biemnidin (1), biemnidin] the activity at 1 µg/mL ([1]; A549, A-549, 1 μg/ml) was greater than 90%, the activity at 10 µg/mL ([1]; A549, A-549, 10 μg/ml) was greater than 25% and the activity at 50 µg/mL ([1]; A549, A-549, 50 μg/ml) was greater than 25%. For the same compound, the activity at 1 µg/mL ([2]; MDA-MB-231, MD-AMB-231, 1 μg/ml) was greater than 90%, the activity at 10 µg/mL ([2]; MDA-MB-231, MD-AMB-231, 10 μg/ml) was greater than 25% and the activity at 50 µg/mL ([2]; MDA-MB-231, MD-AMB-231, 50 μg/ml) was greater than 25%. The activity at 1 µg/mL ([3]; HCT-8, 1 μg/ml) was greater than 90%, the activity at 10 µg/mL ([3]; HCT-8, 10 μg/ml) was greater than 25% and the activity at 50 µg/mL ([3]; HCT-8, 50 μg/ml) was greater than 25%. The IC50 [4] was 15 µg/mL (≈ 25.7 µM).
